Consider one compound from patent EP2408450B1, “ALPHA-(N-SULFONAMIDO)ACETAMIDE COMPOUND AS AN INHIBITOR OF BETA AMYLOID PEPTIDE PRODUCTION” (Bristol-Myers Squibb Company, priority 2009, dated 2010).

Structures are written as SMILES.

Broadly, the IC50 is the midpoint of a concentration-inhibition curve.

Data set [1] is described as follows: Metabolic stability in liver microsomes (mouse). The class given is in vitro ADME. As for the experimental part: (§1) Mouse, rat, dog, human, and cynomolgus monkey liver microsomes were obtained from BD Gentest (Woburn, MA). The lot numbers were 13 (mouse), 8 (rat), 8 (dog), 19 and 26 (human), and 3 (cynomolgus monkey). […] The reaction, conducted in triplicate, was initiated by the addition of NADPH followed by incubation at 37°C for 50 minutes. Aliquots of samples (0.25 mL) were taken at 0, 5, 10, 20, 30, 40 and 50 minutes and the reaction was quenched by the addition of 3 volumes of acetonitrile. […] The reaction, conducted in triplicate, was initiated by the addition of NADPH followed by incubation at 37 °C for 50 minutes. Aliquots of samples (0.25 mL) were taken at 0, 5, 10, 20, 30, 40 and 50 minutes and the reaction was quenched by the addition of 3 volumes of acetonitrile. […] The reaction, conducted in duplicate, was initiated by the addition of NADPH followed by incubation at 37°C for 40 minutes. Aliquots of samples (0.25 mL) were taken at 0, 5, 10, 15, 20, 30 and 40 minutes and the reaction was quenched by the addition of 3 volumes of acetonitrile. For all studies, samples were analyzed immediately by an LC/MS method.

Data set [2] can be described thus: Metabolic stability in liver microsomes (rat). The class given is in vitro ADME. As for the experimental part: as §1
In general terms: Liver microsomes are a subcellular fraction often used to study metabolism.

For the next data set, the system named is Aβ40. Put plainly: Inhibition of Aβ40 formation in cultured H4 APP751 SWE cells. The class given is cell-based. To be noted: H4-8Sw cells, mean ± SD, n = 50.
The subject of a further data set is CYP3A4 mRNA. To be noted: human, 3 days, 20 µM.
The test system of another data set is mouse Notch1-ΔE. Kind of data set: Inhibition of Notch1-ΔE signaling in Hela cells (CBF1-luciferase reporter). The following applies: read-out: IC50 for inhibition of Notch1-ΔE signaling. A general note: In a reporter assay the amount or activity of a reporter protein is the signal.

Protocol for Aβ40: Cells were maintained in log phase through twice weekly passage at a 1:20 dilution. […] Following incubation for 19 hours in 5% CO2 at 37°C, plates were briefly centrifuged (1000 rpm, 5 min). […] Antibody cocktails were freshly prepared by dilution into 40 mM Tris-HCl (pH 7.4) with 0.2% BSA and added to assay plates. […] Assay plates containing antibodies were sealed with aluminum foil and incubated overnight at 4°C. Signal was determined using a Viewlux counter (Perkin Elmer) and IC50 values determined using curve fitting in CurveMaster (Excel Fit based).
Protocol for CYP3A4 mRNA: [[2-fluoro-4-(1,2,4-oxadiazol-3-yl)phenyl]methyl]amino]-5,5,5-trifluoropentanamide to induce CYP3A4 mRNA was evaluated in vitro using the Fa2N-4 cell line. The Fa2N-4 cell is an immortalized human hepatocyte line that was created using the Simian virus 40 (SV40) T antigen as the immortalizing gene, while retaining basal expression and inducibility of several CYP isoforms, including CYP3A4. Fa2N-4 cells and MFE Support Media F were provided by XenoTech, LLC (Lenexa, Kansas).
Upon the receipt of the cells, the media were changed and the cells maintained overnight in a humidified, CO2-supplied incubator. After this adaptation period, the cells were examined under a light microscope and a determination was made as to whether the cells were morphologically normal and suitable for use. During the treatment period, the cells were visually inspected on a daily basis; cellular morphology, confluency, and signs of toxicity due to the test article were documented as necessary. […] Rifampicin (10 µM), a prototypical CYP3A4 inducer, was used as the positive control. Fa2N-4 cells were exposed to the test articles for a total of 3 days. The culture medium was replaced daily with fresh medium containing the test articles. After a total of ~72 hours of exposure, medium was aspirated and the cells washed once with warm phosphate buffered saline solution before adding the cell lysis buffer (Qiagen, Valencia, CA).
Protocol for mouse Notch1-ΔE: The mouse Notch1-ΔE construct contains the mouse Notch1 signal sequence and the M1727V mutation within the transmembrane domain to suppress internal translation initiation.
Hela cells were maintained in DMEM (GibcoBRL) containing 10% FBS (GibcoBRL), Penicillin/Streptomycin (GibcoBRL) and 2 mM L-glutamine (GibcoBRL). Cells were transiently transfected using TransIT-HelaMONSTER (Mirus) according to the manufacturer's directions. […] The CBF1-luciferase reporter construct consists of 4X copies of the CBF1 binding element upstream of the SV40 promoter (pGL3-Promoter, Promega). […] DNA stocks were diluted in TE buffer (10 mM Tris, 1 mM EDTA, pH 8.0) for transfection. […] Test compounds were initially diluted in a 96 well polypropylene plate in 100% DMSO. […] Diluted compound solutions (10 µL) were added to the cell plate yielding a final 0.1 % DMSO concentration. Cell plates containing compound were incubated overnight at 37°C. Following this overnight incubation, media was gently removed and 25 µL of phosphate buffered saline (with calcium and magnesium) was added to each well. Luc-Screen (Applied Biosystems) reagents A and B were mixed in equal proportions and 50 µL of the mixture was added to each well. The plate was incubated at room temperature for 10 minutes before black backing was attached to the bottom of the plate and the signal was read on a TopCount (Packard). […]

Consider `NC(=O)[C@@H](CCC(F)(F)F)N(Cc1ccc(-c2ncon2)cc1F)S(=O)(=O)c1ccc(Cl)cc1` [(2R)-2-[[(4-chlorophenyl)sulfonyl][[2-fluoro-4-(1,2,4-oxadiazol-3-yl)phenyl]methyl]amino]-5,5,5-trifluoropentanamide], for which the “rate of in vitro metabolism” value is recorded as 690 pmol/min/mg protein in data set [1] (mouse microsomes, NADPH-fortified, 1 µM) and 630 pmol/min/mg protein in data set [2] (rat microsomes, NADPH-fortified, 1 µM). Moreover, the “predicted in vivo (serum) clearance” value is on record as “approximately 87 mL/min/kg” in data set [1] (mouse, scaled from liver microsome rate) and about 52 mL/min/kg in data set [2] (rat, scaled from liver microsome rate). Moreover, the half-maximal inhibitory concentration (IC50) with Aβ40 came to 0.3 ± 0.15 nM; with mouse Notch1-ΔE, 58 ± 23 nM. Further, the “magnitude of induction as % of the induction response caused by rifampicin” value with CYP3A4 mRNA is 22%.
